Laboratory results taken from patent US20140100241A1 (priority 2007, published 2014).
Where two headings read alike, the source gives them in different places.

Experiments:
[1] = cited from earlier work
[2] = tested on: patients with opiate dependence; test: Clinical detoxification of opiate-dependent patients with decreasing buprenorphine troche doses (microdose protocol)

Question: Which mean half-life ([1]; in vivo) does the source give for COC12CCC3(CC1C(C)(O)C(C)(C)C)C1Cc4ccc(O)c5c4C3(CCN1CC1CC1)C2O5 [Buprenorphine, (2S)-2-[(−)-(5R,6R,7R,14S)-9α-cyclopropylmethyl-4,5-epoxy-6,14-ethanomorphinan-7-yl]-3-hydroxy-6-methoxy-3,3-dimethylbutan-2-ol] here?
Answer: 35 to 37 h

Question: What about the “elimination half-life (mean)” value ([1]; mean) of the same molecule?
Answer: 37 h

Question: And the first-pass metabolism ([1]; oral administration)?
Answer: very high

Question: What about the elimination half-life ([1]; range) of the same molecule?
Answer: 20 to 73 h

Question: And the mean half-life ([1]; taken sublingually)?
Answer: 35 to 37 h

Question: And the “withdrawal symptoms after dose reduction” value ([2]; 2.0 mg dose reduction, experienced or chronic user of narcotic type medications)?
Answer: significant withdrawal symptoms

Question: What about the “time to return of withdrawal symptoms” value ([2]; cut-off of 2.0 mg) of the same molecule?
Answer: ≤ 24 h

Question: What about the treatment outcome ([2]; fractional dose of 1.5 mg after a final 3.0 mg dose) of the same molecule?
Answer: unsuccessful

Question: And the “patients transitioned safely and in a symptomless manner from buprenorphine to the blocker Naltrexone” value ([2]; increased number of sub 0.1 mg doses, treatment three or more months)?
Answer: ~100%

Question: And the “completion rate (completion means a narcotic free state)” value ([2]; microdose methods over an extended period, months rather than days or weeks)?
Answer: approximately 96%

Question: And the “duration of withdrawal symptoms” value ([2]; previous treatment regimens, doses 8.0 to 3.0 mg)?
Answer: three to five days

Question: And the “withdrawal symptoms reported by patients” value ([2]; serial doses of 0.25 mg)?
Answer: perceptible and, in some cases, intolerable withdrawal symptoms

Question: And the success rate ([2]; when taken to completion of the dose reduction schedule)?
Answer: greater than 90%

Question: With CN1C(=O)CN=C(c2ccccc2)c2cc(Cl)ccc21 [Diazepam] as the molecule, how does the “observed effect in the early phase of withdrawal” value ([2]; outpatients) read?
Answer: too dis-inhibiting

Question: With O=C1CC[C@@]2(O)[C@H]3Cc4ccc(O)c5c4[C@@]2(CCN3CC2CC2)[C@H]1O5 [Naltrexone] as the molecule, how does the “return of withdrawal symptoms after the end of buprenorphine treatment” value ([2]; Naltrexone administered at 12.5 mg) read?
Answer: up to five days
